Measurements taken from patent publication US20090306133A1, “New Acetyl Coenzyme A Carboxylase (ACC) Inhibitors And Uses In Treatments Of Obesity And Diabetes Mellitus - 087” (ASTRAZENECA AB, priority 2007, published 2009).

Experiments:
[1] = molecular target: Human recombinant Acetyl-CoA Carboxylase 2 (ACC2) (Homo sapiens, UniProt O00763); experiment: Assay Y: ACC2 inhibition, inorganic phosphate (Malachite Green); format: biochemical; details: Assay Y: room temperature, 3 hr, 15 min preincubation
Summary of the method: (§1)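 Enzyme preincubated with compound 15 min before substrate addition; reaction run 3 h, then phosphate detected with Malachite Green at 670 nm after 10 min at room temperature. Triplicate 10-point titrations; IC50 by non-linear four-parameter curve fitting.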

[2] = molecular target: Human recombinant Acetyl-CoA Carboxylase 1 (ACC1) (Homo sapiens, UniProt Q13085); experiment: Assay Y: ACC1 inhibition, inorganic phosphate (Malachite Green); format: biochemical; details: Assay Y: room temperature, 3 hr, 15 min preincubation
Summary of the method: as §1

Sequence of Human recombinant Acetyl-CoA Carboxylase 2 (ACC2) (O00763 whole entry): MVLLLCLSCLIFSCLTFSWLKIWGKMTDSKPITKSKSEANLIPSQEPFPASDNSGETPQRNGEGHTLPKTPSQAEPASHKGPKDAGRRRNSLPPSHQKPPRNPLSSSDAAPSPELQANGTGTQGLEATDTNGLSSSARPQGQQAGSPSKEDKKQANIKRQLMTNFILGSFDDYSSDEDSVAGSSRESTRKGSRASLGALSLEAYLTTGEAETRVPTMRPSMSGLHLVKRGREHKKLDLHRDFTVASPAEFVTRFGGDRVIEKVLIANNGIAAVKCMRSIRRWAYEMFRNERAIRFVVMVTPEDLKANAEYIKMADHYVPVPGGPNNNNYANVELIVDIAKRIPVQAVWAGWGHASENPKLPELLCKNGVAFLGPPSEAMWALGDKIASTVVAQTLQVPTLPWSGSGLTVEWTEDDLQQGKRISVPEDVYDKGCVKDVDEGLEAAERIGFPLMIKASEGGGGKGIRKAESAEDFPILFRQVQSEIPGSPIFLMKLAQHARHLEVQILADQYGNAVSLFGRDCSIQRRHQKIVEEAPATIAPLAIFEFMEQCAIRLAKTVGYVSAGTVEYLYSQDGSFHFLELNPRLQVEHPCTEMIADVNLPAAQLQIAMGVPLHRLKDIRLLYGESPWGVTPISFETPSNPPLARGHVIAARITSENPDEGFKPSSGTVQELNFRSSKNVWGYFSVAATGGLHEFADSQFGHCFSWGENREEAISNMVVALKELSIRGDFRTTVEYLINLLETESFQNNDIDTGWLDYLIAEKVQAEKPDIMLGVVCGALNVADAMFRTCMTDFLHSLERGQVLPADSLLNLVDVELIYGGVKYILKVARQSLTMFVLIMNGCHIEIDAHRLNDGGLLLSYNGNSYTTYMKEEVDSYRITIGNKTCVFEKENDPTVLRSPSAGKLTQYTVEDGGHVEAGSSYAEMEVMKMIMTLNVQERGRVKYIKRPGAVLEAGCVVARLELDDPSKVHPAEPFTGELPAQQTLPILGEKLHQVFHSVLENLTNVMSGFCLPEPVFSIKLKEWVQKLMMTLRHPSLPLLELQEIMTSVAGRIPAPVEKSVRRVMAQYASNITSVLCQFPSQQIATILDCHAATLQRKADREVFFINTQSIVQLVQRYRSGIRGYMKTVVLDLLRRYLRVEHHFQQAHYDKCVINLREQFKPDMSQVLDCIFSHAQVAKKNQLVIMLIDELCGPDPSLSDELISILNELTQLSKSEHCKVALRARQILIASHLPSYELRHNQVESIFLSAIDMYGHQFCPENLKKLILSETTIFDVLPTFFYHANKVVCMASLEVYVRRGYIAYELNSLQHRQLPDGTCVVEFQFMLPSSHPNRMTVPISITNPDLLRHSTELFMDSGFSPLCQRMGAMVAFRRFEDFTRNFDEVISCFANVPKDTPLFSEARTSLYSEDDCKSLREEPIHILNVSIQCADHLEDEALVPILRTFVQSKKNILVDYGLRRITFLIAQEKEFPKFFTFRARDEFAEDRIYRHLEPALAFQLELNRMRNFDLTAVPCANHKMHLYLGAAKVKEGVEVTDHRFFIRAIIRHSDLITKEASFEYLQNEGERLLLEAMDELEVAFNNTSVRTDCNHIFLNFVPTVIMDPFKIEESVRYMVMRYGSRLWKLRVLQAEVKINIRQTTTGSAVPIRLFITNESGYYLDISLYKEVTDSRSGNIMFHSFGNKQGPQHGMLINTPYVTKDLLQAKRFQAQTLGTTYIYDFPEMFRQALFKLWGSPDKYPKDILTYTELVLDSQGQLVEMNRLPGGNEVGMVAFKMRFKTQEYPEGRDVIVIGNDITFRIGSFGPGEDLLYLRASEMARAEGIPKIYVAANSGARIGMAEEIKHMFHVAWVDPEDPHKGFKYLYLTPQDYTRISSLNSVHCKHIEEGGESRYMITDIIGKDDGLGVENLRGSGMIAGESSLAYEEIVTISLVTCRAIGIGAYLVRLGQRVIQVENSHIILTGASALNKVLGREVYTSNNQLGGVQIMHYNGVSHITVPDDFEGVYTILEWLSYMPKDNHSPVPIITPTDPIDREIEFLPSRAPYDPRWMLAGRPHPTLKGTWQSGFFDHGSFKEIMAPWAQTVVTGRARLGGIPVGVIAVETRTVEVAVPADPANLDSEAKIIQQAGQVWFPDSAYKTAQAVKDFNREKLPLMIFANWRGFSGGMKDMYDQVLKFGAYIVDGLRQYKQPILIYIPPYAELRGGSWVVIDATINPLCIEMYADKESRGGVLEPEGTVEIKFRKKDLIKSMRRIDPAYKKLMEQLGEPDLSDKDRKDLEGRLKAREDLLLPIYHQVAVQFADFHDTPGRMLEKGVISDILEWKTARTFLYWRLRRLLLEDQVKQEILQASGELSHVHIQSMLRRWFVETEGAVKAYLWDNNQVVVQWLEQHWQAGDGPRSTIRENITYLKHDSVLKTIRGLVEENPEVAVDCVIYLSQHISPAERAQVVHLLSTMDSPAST

SMILES	IC50 [1]	IC50 [2]
COC(=O)NCc1ccc(-c2cc(C(=O)NC[C@H]3CC[C@H](CNC(=O)OC(C)(C)C)CC3)c3ccccc3n2)cc1 [Example 104, Methyl [4-(4-{[(trans-4-{[(tert-butoxycarbonyl)amino]methyl}cyclohexyl)methyl]-carbamoyl}quinolin-2-yl)benzyl]carbamate]	110 nM	1.6 µM
CC(C)(C)OC(=O)NC[C@H]1CC[C@H](CNC(=O)c2ccnc(-c3ccc(F)c(F)c3)c2)CC1 [Example 53, tert-Butyl {[trans-4-({[2-(3,4-difluorophenyl)isonicotinoyl]amino}methyl)cyclohexyl]-methyl}carbamate]	9080 nM	> 20 µM
CN1CCC(OC(=O)NC[C@H]2CC[C@H](CNC(=O)c3cc(-c4ccc(N5CCN(C)CC5)nc4)nc4ccccc34)CC2)CC1 [Example 110, 1-Methylpiperidin-4-yl-[(trans-4-{[({2-[6-(4-methylpiperazin-1-yl)pyridin-3-yl]quinolin-4-yl}carbonyl)amino]methyl}cyclohexyl)methyl]carbamate]	4370 nM	> 20 µM
CC(C)(C)OC(=O)NC[C@H]1CC[C@H](CNS(=O)(=O)c2cccc3cccnc23)CC1 [Example 66, tert-Butyl [(trans-4-{[(quinolin-8-ylsulfonyl)amino]methyl}cyclohexyl)methyl]-carbamate]	1390 nM	6.79 µM

Other lines, results leading:

IC50 [1]	IC50 [2]	SMILES
660 nM	2.49 µM	C[C@@H](CO)OC(=O)NC[C@H]1CC[C@H](CNC(=O)c2cc(-c3ccc(N4CCN(C)CC4)nc3)nc3ccccc23)CC1 [Example 133, (1S)-2-Hydroxy-1-methylethyl [(trans-4-{[({2-[6-(4-methylpiperazin-1-yl)pyridin-3-yl]quinolin-4-yl}carbonyl)amino]methyl}cyclohexyl)methyl]carbamate]
4670 nM	> 20 µM	COCCOC(=O)NC[C@H]1CC[C@H](CNC(=O)c2cc(-c3ccncc3)nc3ccccc23)CC1 [Example 59, 2-Methoxyethyl {[trans-4-({[(2-pyridin-4-ylquinolin-4-yl)carbonyl]amino}-methyl)cyclohexyl]methyl}carbamate]
1120 nM	> 20 µM	CC(C)(C)OC(=O)NC[C@H]1CC[C@H](CNC(=O)c2cc(N3CCN(CCO)CC3)nc3ccccc23)CC1 [Example 185, tert-Butyl [(trans-4-{[({2-[4-(2-hydroxyethyl)piperazin-1-yl]quinolin-4-yl}carbonyl)amino]methyl}cyclohexyl)methyl]carbamate]
1140 nM	3.51 µM	CC(C)(C)OC(=O)NC[C@H]1CC[C@H](CNC(=O)c2cc(-c3cncnc3)nc3ccccc23)CC1 [Example 33, tert-Butyl {[trans-4-({[(2-pyrimidin-5-ylquinolin-4-yl)carbonyl]amino}methyl)cyclo-hexyl]methyl}carbamate]
220 nM	1.17 µM	CC(C)(C)OC(=O)NC[C@H]1CC[C@H](CNC(=O)c2cc(-c3ccc(C#N)cc3)nc3ccccc23)CC1 [Example 34, tert-Butyl ({trans-4-[({[2-(4-cyanophenyl)quinolin-4-yl]carbonyl}amino)methyl]cyclo-hexyl}methyl)carbamate]
